Literature values, collected in patent publication US20180155344A1, “TRICYCLIC PIPERIDINE COMPOUNDS” (ACTELION PHARMACEUTICALS LTD, priority 2015, published 2018).

Legend:
cholangiocarcinoma = conditions: xenograft model of cholangiocarcinoma; cited from earlier work
5HT [1] = conditions: 200 mg/kg i.p. qid for 3 days, cited from earlier work
5HT [2] = conditions: phase IIA study, qid; cited from earlier work
5HT [3] = conditions: cited from earlier work

SMILES	tumor volume (cholangiocarcinoma)	5HT in the brain (5HT [1]; brain) [% original]	5HT in the gut (5HT [1]; gut) [% original]	blood 5HT (5HT [2])	urinary 5HIAA reduction (5HT [2])	brain 5HT (5HT [3]; brain)	5HT in the colon (5HT [3]; colon)	5HT in the jejunum (5HT [3]; jejunum)
N[C@@H](Cc1ccc(Cl)cc1)C(=O)O (racemic) [PCA, p-chlorophenylalanine]	dramatic reduction in tumor volume	~20	~50					
COc1cccc(-c2ccc([C@@H](Oc3cc(-c4ccc(C[C@H](N)C(=O)O)cc4)nc(N)n3)C(F)(F)F)cc2)c1 [LX1031, (S)-2-Amino-3-(4-{2-amino-6-[(R)-2,2,2-trifluoro-1-(3′-methoxy-biphenyl-4-yl)-ethoxy]-pyrimidin-4-yl}-phenyl)-propionic acid]				did not affect blood 5HT	up to 30%	no effect on brain 5HT	only a minor reduction	lowers 5HT in the jejunum
